Experiments:
[1] = target: T1, ALK5 (TGF-βR1) (Homo sapiens, UniProt P36897); conditions: high concentrations; cited from earlier work
T1 sequence (P36897 34-503): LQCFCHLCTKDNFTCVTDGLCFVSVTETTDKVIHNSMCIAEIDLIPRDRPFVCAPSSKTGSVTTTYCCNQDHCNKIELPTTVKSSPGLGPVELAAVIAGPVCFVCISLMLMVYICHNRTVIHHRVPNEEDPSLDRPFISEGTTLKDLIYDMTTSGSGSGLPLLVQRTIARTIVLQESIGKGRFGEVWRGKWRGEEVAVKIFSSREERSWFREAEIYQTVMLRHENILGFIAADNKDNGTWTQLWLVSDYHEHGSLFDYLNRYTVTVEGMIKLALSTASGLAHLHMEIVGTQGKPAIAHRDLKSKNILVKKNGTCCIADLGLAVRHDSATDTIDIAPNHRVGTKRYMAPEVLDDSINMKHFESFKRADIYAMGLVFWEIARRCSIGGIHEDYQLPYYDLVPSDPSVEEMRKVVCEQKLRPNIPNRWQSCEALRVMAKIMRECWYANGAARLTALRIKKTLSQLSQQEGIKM

[2] = target: T2, P-gp (Homo sapiens, UniProt P08183); experiment: Rhodamine transport assay, kidney-C monolayers; assay type: cell-based; conditions: 1 μM, 30 mins; day 7
T2 construct: endogenous in cells; host or cells: human lung organoid-derived monolayer (donor lung-C)

[3] = target: T2, P-gp; experiment: Calcein transport assay, kidney-C monolayers; assay type: cell-based; conditions: 1 μM, 30 mins; KEM or DAC conditions, day 7
[4] = target: T2, P-gp; experiment: Calcein transport assay, pulse-chase format, lung-C monolayers; assay type: cell-based; conditions: T=2 hours
[5] = target: T2, P-gp; experiment: Calcein transport assay, accumulation format, lung-C monolayers; assay type: cell-based; conditions: 1 μM, 30 mins; LuM LLI and LuM ALI
[6] = system: normal colon-derived epithelium monolayers; experiment: Cytokine-induced barrier injury with tofacitinib pre-treatment, TEER; assay type: cell-based, human
Description: (A) Transepithelial electrical resistance (TEER). (B) relative TEER value from the same Transwell before treatment after 5 and 24 hours. (C) Permeability and (D) Cell viability of the same Transwell after 24 hours in response to treatments. […] (E) TEER (top), permeability (middle) and cell viability (bottom) dose response curves. EC50 values were calculated by Non-linear regression log(inhibitor) versus response variable slope (four parameters) of three technical replicates.
(A) Transepithelial electrical resistance (TEER). (B) Relative TEER values from the same Transwell before treatment after 5 and 24 hours. (C) Permeability and (D) Cell viability of the same Transwell after 24 hours in response to treatments. […] An unpaired t-test was performed on permeability and cell viability data. A one-way ANOVA (Dunett's multiple comparisons test) was done on normalized TEER, permeability and cell viability data. *P<0.05, **P<0.01, ***P<0.001.
At this point, the culture medium was changed to cCDM until epithelium monolayer barrier integrity further increased (TEER >1000 Ω·cm^2). […] These measurements were normalized to the TEER value of the same Transwell before measurement, to correct for well-to-well TEER variability (FIG. 7B). Paracellular permeability was measured by the Lucifer Yellow (LY) permeability assay after 24 hours (FIG. 7C). Subsequently, monolayer cell viability was measured by the ATP Luminescent Assay, CellTiter-Glo 3D, to monitor for loss of barrier function due to cell death, as opposed to increased paracellular permeability. […] (FIG. 7D).

[7] = system: normal ileum-derived organoid epithelium monolayers; experiment: Cytokine-induced barrier injury with tofacitinib pre-treatment, LY permeability; assay type: cell-based, human; conditions: 10 μM tofacitinib, IFN-γ containing cytokine cocktails
[8] = system: IBD-PDO ileum epithelium monolayers; experiment: Barrier function assay in IBD-PDO monolayers, TEER; assay type: cell-based, human; conditions: 0.1, 2 and 10 μM pre-treatment
Description: (§1) (A) Transepithelial electrical resistance (TEER). (B) relative TEER value from the same transwell before treatment after 5 and 24 hours. (C) Permeability and (D) cell viability of the same Transwell after 24 hours in response to treatments. Data represented as mean±SD for 3 technical replicates. A two-way ANOVA (Dunett's multiple comparisons test) was done on normalized TEER, all conditions were compared to the pre-treatment conditions. For permeability and cell viability data a one-way ANOVA (Dunett's multiple comparisons test) was used. ****P<0.0001; ***P<0.001; **P<0.01; *P<0.1; ns, not significant.
(§2) IBD patient-derived organoid (IBD-PDO) monolayer cultures from ileum, proximal and distal colon were established following the same protocols used in previous experiments. […] Their barrier integrity was measured at 5 and 24 hours followed by LY permeability and cell viability performed (FIGS. 10, 11).

[9] = system: IBD-PDO ileum epithelium monolayers; experiment: Barrier function assay in IBD-PDO monolayers, cell viability; assay type: cell-based, human; conditions: 0.1, 2 and 10 μM pre-treatment
[10] = system: IBD-PDO derived distal colon epithelium monolayers; experiment: Barrier function assay in IBD-PDO monolayers, TEER; assay type: cell-based, human; conditions: highest tofacitinib concentration
Description: as §1, with “(A-C)” for “(A)”, “(D-F)” for “(B)”, “Transwell” for “transwell”, “(G-I)” for “(C)”, “(J-L)” for “(D)”
as §2

[11] = system: normal colon-derived epithelium monolayers; experiment: Cytokine-induced barrier injury with tofacitinib pre-treatment, Lucifer Yellow permeability assay; assay type: cell-based, human
[12] = system: IBD-PDO proximal colon epithelium monolayers; experiment: Barrier function assay in IBD-PDO monolayers, TEER; assay type: cell-based, human; conditions: after 24 hours
Description: as §2

[13] = system: IBD-PDO ileum epithelium monolayers; experiment: Barrier function assay in IBD-PDO monolayers, LY permeability; assay type: cell-based, human; conditions: 0.1, 2 and 10 μM pre-treatment
[14] = system: normal colon-derived epithelium monolayers; assay type: cell-based, human; conditions: cytokine-treated colon monolayers
[15] = system: IBD-PDO derived distal colon epithelium monolayers; experiment: Barrier function assay in IBD-PDO monolayers, cell viability; assay type: cell-based, human; conditions: 0.1, 2 and 10 μM pre-treatment
[16] = system: normal ileum-derived organoid epithelium monolayers; experiment: Cytokine-induced barrier injury with tofacitinib pre-treatment, TEER; assay type: cell-based, human
Description: (A) Transepithelial electrical resistance (TEER). (B) Relative TEER values from the same Transwell before treatment after 5 and 24 hours. (C) Permeability and (D) Cell viability of the same Transwell after 24 hours in response to treatments. Data are represented as mean±SD for 3 technical replicates. An unpaired t-test was performed on permeability and cell viability data. A one-way ANOVA (Dunett's multiple comparisons test) was done on normalized TEER, permeability and cell viability data. *P<0.05, **P<0.01, ***P<0.001.
The experimental condition above were reproduced by repeating the same experiment with same normal colon-derived epithelium monolayer and extended to normal ileum-derived organoid epithelium monolayers from the same donor, as in the previous experiment.
To address IFN-γ specificity in inducing barrier injury, TNF-α/IL-1α combination (data not shown) was included in addition to IFN-γ/TNF-α/IL-1α and IFN-γ/TNF-α.

[17] = system: IBD-PDO derived distal colon epithelium monolayers; experiment: Barrier function assay in IBD-PDO monolayers, LY permeability; assay type: cell-based, human; conditions: 0.1, 2 and 10 μM pre-treatment
[18] = system: Human gastro-intestinal tract organoid-derived monolayers; experiment: Polarisation assay: TEER and Lucifer yellow permeability after apical or basolateral treatment; assay type: cell-based; conditions: eCDM; apical, basolateral or both compartments; day 3 after seeding
[19] = system: normal colon derived epithelium monolayers; experiment: Proinflammatory cytokine titration, barrier injury by TEER; assay type: cell-based, human; conditions: cCDM culture condition, 24 hours after cytokine addition
Description: FIG. 6 illustrates inducing barrier injury to normal colon derived epithelium monolayers on 96 well transwell plates in expansion (CNM) and combination (cCDM) culture conditions by serial titration of proinflammatory cytokines. All proinflammatory cytokines were used at the final concentrations listed on the graph regardless of combination. (A)-(H) illustrate transepithelial […] (TEER) in CNM and cCDM culture conditions. Data are represented as mean±SD for 3 technical replicates. […] EC50 dose response curves were calculated by Non-linear regression log(inhibitor) versus response variable slope (four parameters).
As IFN-γ has major impact in inducing barrier damage via JAK-STAT signalling pathway, we titrated different combinations of three indicated proinflammatory cytokines to resolve TNF-α and IL-1α synergy in combination with IFN-γ. […] The lower sensitivity of organoid-derived epithelium monolayers cultured in CNM correlated with a lower expression of IFN-γ receptor (IFNGR1) compared to the cCDM culture condition.

T2 sequence (P08183 whole entry): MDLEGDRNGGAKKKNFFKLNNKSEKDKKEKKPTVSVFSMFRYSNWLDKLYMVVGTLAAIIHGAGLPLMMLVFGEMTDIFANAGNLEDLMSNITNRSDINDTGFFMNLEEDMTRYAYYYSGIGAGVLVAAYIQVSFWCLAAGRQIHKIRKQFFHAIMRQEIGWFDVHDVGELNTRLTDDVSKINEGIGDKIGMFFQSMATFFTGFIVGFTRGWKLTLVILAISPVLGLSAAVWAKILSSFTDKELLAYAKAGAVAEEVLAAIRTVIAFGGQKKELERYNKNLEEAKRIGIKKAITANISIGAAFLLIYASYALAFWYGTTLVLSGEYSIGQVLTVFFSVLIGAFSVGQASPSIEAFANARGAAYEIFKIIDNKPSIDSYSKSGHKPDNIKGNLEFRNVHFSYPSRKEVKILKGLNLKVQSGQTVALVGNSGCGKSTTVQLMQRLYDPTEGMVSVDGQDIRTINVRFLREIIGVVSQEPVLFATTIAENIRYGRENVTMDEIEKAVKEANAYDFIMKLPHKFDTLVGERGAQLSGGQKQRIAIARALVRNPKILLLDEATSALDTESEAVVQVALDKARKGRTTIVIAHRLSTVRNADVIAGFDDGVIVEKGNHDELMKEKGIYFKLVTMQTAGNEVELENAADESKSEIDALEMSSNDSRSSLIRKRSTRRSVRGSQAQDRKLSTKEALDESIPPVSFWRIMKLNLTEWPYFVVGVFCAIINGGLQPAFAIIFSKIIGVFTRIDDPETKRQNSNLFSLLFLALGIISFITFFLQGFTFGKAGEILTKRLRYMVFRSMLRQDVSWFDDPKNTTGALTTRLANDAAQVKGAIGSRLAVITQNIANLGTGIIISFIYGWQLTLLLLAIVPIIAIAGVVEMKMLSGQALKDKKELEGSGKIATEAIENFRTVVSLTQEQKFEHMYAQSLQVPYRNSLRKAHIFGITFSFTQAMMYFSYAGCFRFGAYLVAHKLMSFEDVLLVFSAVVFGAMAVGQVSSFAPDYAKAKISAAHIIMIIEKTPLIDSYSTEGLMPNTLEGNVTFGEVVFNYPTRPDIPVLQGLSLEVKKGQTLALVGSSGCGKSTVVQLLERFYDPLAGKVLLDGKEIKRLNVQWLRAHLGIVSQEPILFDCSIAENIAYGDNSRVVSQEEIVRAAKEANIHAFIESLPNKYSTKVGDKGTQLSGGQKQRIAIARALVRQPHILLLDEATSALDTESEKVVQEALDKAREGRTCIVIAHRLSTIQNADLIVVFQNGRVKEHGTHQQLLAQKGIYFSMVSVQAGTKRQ

Molecule: C[S+]([O-])c1ccc(-c2nc(-c3ccc(F)cc3)c(-c3ccncc3)[nH]2)cc1 (centres unmarked) [SB-203580]
- concentration at which it is thought to inhibit ALK5 [1]: ≥ 10 µM

Molecule: C/C=C/C[C@@H](C)C(=O)[C@H]1C(=O)N[C@@H](C(C)C)C(=O)N(C)CC(=O)N(C)[C@@H](CC(C)C)C(=O)N[C@@H](C(C)C)C(=O)N(C)[C@@H](CC(C)C)C(=O)N[C@@H](C)C(=O)N[C@H](C)C(=O)N(C)[C@@H](CC(C)C)C(=O)N(C)[C@@H](CC(C)C)C(=O)N(C)[C@@H](C(C)C)C(=O)N1C [PSC833]
- cellular accumulation of Rhodamine [2]: Increased cellular accumulation of Rhodamine
- cellular accumulation of Calcein AM [3]: Increased cellular accumulation of Calcein AM
- Calcein AM accumulation or efflux [4]: did not show notable effects on Calcein AM accumulation or efflux
- cellular accumulation of Calcein AM [5]: Increased cellular accumulation of Calcein AM

Molecule: C[C@@H]1CCN(C(=O)CC#N)C[C@@H]1N(C)c1ncnc2[nH]ccc12 [tofacitinib]
- pre-treatment concentration that maintained barrier function integrity ([6]; both cytokine combinations, TEER): above 3 μM
- tofacitinib pre-treatment concentration that protected monolayers ([6]; colon): 2 µM
- inhibition of TNF-α/IL-1α induced barrier function injury ([6]; highest tofacitinib concentration used): not inhibited by highest tofacitinib concentration used
- protection from cytokine induced barrier injury ([6]; tofacitinib 0.1 μM pre-treatment): partially protected
- protection from cytokine induced barrier injury ([6]; tofacitinib 2 μM pre-treatment): completely
- LY permeability after pre-treatment [7]: became impermeable again
- inhibition of IFN-γ/TNF-α/IL-1α and IFN-γ/TNF-α barrier injury (TEER) [8]: inhibited by tofacitinib pre-treatment in a dose response manner
- inhibition of cytokine-compromised cell viability [9]: inhibited by tofacitinib in a dose responsive manner
- effect on TNF-α/IL-1α reduced barrier function integrity [10]: not inhibited or restored with highest tofacitinib concentration
- inhibition of induced damage (TEER) ([10]; 5 hours): not completely inhibited even with highest tofacitinib concentration
- restoration of induced damage (TEER) ([10]; 24 hours): restored after 24 hours
- EC50 ([11]; Homo sapiens, read-out: Permeability (EC50 of tofacitinib dose response, FIG. 7E), IFN-γ/TNF-α/IL-1α 1 ng/mL): 316 nM
- concentration at which apparent permeability of LY was reduced ([11]; cytokine-treated colon monolayers): above 3 μM
- pre-treatment concentration with which barrier integrity damage was completely restored [12]: higher than 0.1 μM
- inhibition of cytokine-compromised LY permeability [13]: inhibited by tofacitinib in a dose responsive manner
- pre-treatment concentration that prevented cytokine induced cell death [14]: above 3 μM
- inhibition of cytokine-compromised cell viability [15]: inhibited by tofacitinib in a dose responsive manner
- tofacitinib pre-treatment concentration that protected monolayers [16]: 10 µM
- inhibition of cytokine-compromised LY permeability [17]: inhibited by tofacitinib in a dose responsive manner

Molecule: COc1cc2ncnc(Nc3ccc(F)c(Cl)c3)c2cc1OCCCN1CCOCC1 [Gefitinib]
- integrity of organoid-derived epithelial monolayers (TEER, Lucifer yellow permeability) [18]: compromised only when Gefitinib is added to the basolateral compartment

B1: IFN-γ: proinflammatory cytokine, single treatment (protein, UniProt P01579 24-161, looked up)
Interferon gamma: QDPYVKEAENLKKYFNAGHSDVADNGTLFLGILKNWKEESDRKIMQSQIVSFYFKLFKNFKDDQSIQKSVETIKEDMNVKFFNSNKKKRDDFEKLTNYSVTDLNVQRKAIHELIQVMAELSPAAKTGKRKRSQMLFRG
- EC50 calculated from EC50 dose response curves (TEER) [19]: 3.71

Source: patent US20240240155A1, “Organoid-Derived Monolayers and Uses Thereof” (Hub Organoids IP B.V., priority 2021, published 2024)
